Measured values as given in paper PMC4370192, “Discovery of Specific Inhibitors for Intestinal E. coli β-Glucuronidase through In Silico Virtual Screening” (The Scientific World Journal, 2015).

Assays:
[1] = target: T1, E. coli β-glucuronidase (eβG) (Escherichia coli, UniProt P05804); test: In vitro βG-activity assay (pNPG hydrolysis), eβG; type: biochemical
T1 construct: histidine tag (N); made in house; host or cells: E. coli BL21 (DE3)
Method: (§1) Plasmid pRESTB containing βG gene and a histidine tag at the N-terminus was constructed as described. Recombinant βG (human and E. coli) was produced by isopropyl β-D-thiogalactopyranoside (IPTG) induction of BL21 (DE3) bacteria. βG was purified from bacterial supernatants by affinity chromatography on nickels Sepharose 6 Fast Flow (GE Healthcare). The column was washed by phosphate-buffered saline (PBS), with 50 mM imidazole, and βG was eluted by PBS with 250 mM imidazole. The purified βG was desalted on a Sephadex G-25 column equilibrated with PBS and stored at −80°C.
The candidate compounds were purchased from SPECS (The Netherlands). Each candidate was provided as a solid power and dissolved in 100% DMSO (Sigma-Aldrich) to 10 mM as stock. Candidates were screened for their inhibition specificity of eβG versus hβG, which were conducted at pH 7.3 or pH 5.4, in triplicate, respectively. 40 μL purified βG was treated with 10 μL compound solution at 37°C for 30 min and sequentially incubated with 50 μL of pNPG (Sigma-Aldrich) at 37°C for 30 min. Reactions were quenched with 5 μL of 2 N sodium hydroxide (Sigma-Aldrich). Each reaction consisted of 3.75 ng purified βG, 50 μM compound, and 5 mM pNPG in PBS containing 10% DMSO and 0.05% BSA (Sigma-Aldrich). βG-activities were measured by color development of pNP detected on a microplate reader at OD 405 nm. […] For IC50 determination, compounds at various concentrations (100 μM to 0.001 μM) were added.
Supplementary file 740815.f1.pdf: Fifty-nine candidate compounds were acquired from the initial virtually screening which was designed to target the bacterial loop of eβG and its active site. The docking energy scores of 59 candidate compounds measured by the DOCK program are -43 to -55 kcal/mol. (Table S1) The candidate compounds were purchased from SPECS (Zoetermeer, The Netherlands). Each candidate was rovided as a solid power and dissolved in 100% DMSO (Sigma-Aldrich, MO, USA) to 10 mM as stock. Candidates were screening for their inhibition specificity of eβG verse hβG, which were conducted at pH 7.3 or pH 5.4 in triplicate, respectively. 40 µL purified βG was treated with 10 µL compound solution at 37 °C for 30 min, and sequentially incubated with 50 µL of pNPG (Sigma-Aldrich) at 37 °C for 30 min. Reactions were quenched with 5 µL of 2 N sodium hydroxide (Sigma-Aldrich). Each reaction consisted of 3.75 ng purified βG, 50 µM compound, and 5 mM pNPG in PBS containing 10% DMSO and 0.05% BSA (Sigma-Aldrich). βG-activities were measured by color development of pNP detected on a microplate reader at OD 405 nm. […] Especially, the inhibiting ability against eβG activity was >95% in 7 candidates of eβG specific inhibitors (Table S1).
(§2) Fifty-nine candidate compounds were acquired from the initial virtually screening which was designed to target the bacterial loop of eβG and its active site. The docking energy scores of 59 candidate compounds measured by the DOCK program are -43 to -55 kcal/mol. (Table S1) The candidate compounds were purchased from SPECS (Zoetermeer, The Netherlands). Each candidate was provided as a solid power and dissolved in 100% DMSO (Sigma-Aldrich, MO, USA) to 10 mM as stock. Candidates were screening for their inhibition specificity of eβG verse hβG, which were conducted at pH 7.3 or pH 5.4 in triplicate, respectively. 40 μL purified βG was treated with 10 μL compound solution at 37 °C for 30 min, and sequentially incubated with 50 μL of pNPG (Sigma-Aldrich) at 37 °C for 30 min. Reactions were quenched with 5 μL of 2 N sodium hydroxide (Sigma-Aldrich). Each reaction consisted of 3.75 ng purified βG, 50 μM compound, and 5 mM pNPG in PBS containing 10% DMSO and 0.05% BSA (Sigma-Aldrich). βG-activities were measured by color development of pNP detected on a microplate reader at OD 405 nm. […]
percent of βG activity compared with the untreated control.
Especially, the inhibiting ability against eβG activity was >95% in 7 candidates of eβG specific inhibitors (Table S1).
Table S1. […]

human βG (hβG) = target: T2, human βG (hβG) (Homo sapiens, UniProt P08236); test: In vitro βG-activity assay (pNPG hydrolysis), hβG; type: biochemical
T2 construct: histidine tag (N); made in house; host or cells: E. coli BL21 (DE3)
T2 sequence (P08236 23-651): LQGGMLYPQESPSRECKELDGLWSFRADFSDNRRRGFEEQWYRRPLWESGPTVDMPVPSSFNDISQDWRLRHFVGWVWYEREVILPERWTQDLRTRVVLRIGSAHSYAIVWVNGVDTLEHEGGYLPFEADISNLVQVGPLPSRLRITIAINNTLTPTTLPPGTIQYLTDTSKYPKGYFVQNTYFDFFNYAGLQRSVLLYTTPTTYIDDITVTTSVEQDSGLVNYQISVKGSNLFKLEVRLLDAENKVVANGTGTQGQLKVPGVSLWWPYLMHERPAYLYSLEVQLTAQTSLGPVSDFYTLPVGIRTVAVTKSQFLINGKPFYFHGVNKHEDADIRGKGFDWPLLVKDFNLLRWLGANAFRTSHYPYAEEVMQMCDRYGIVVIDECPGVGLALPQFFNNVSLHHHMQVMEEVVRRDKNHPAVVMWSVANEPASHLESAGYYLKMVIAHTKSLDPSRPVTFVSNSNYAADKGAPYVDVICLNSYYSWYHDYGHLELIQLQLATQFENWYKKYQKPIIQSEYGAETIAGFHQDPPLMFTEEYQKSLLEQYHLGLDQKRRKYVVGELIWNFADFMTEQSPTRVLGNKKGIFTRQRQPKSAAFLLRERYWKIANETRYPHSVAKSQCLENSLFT
Method: as §1
The candidate compounds were purchased from SPECS (The Netherlands). Each candidate was provided as a solid power and dissolved in 100% DMSO (Sigma-Aldrich) to 10 mM as stock. Candidates were screened for their inhibition specificity of eβG versus hβG, which were conducted at pH 7.3 or pH 5.4, in triplicate, respectively. 40 μL purified βG was treated with 10 μL compound solution at 37°C for 30 min and sequentially incubated with 50 μL of pNPG (Sigma-Aldrich) at 37°C for 30 min. Reactions were quenched with 5 μL of 2 N sodium hydroxide (Sigma-Aldrich). Each reaction consisted of 3.75 ng purified βG, 50 μM compound, and 5 mM pNPG in PBS containing 10% DMSO and 0.05% BSA (Sigma-Aldrich). βG-activities were measured by color development of pNP detected on a microplate reader at OD 405 nm.
as §2, with “(Table” for “Fifty-nine candidate compounds were acquired from the initial virtually screening which was designed to target the bacterial loop of eβG and its active site. The docking energy scores of 59 candidate compounds measured by the DOCK program are -43 to -55 kcal/mol. (Table”, “rovided” for “provided”, “µL” for “μL”, “µM” for “μM”
candidate compounds were purchased from SPECS (Zoetermeer, The Netherlands). Each candidate was provided as a solid power and dissolved in 100% DMSO (Sigma-Aldrich, MO, USA) to 10 mM as stock. Candidates were screening for their inhibition specificity of eβG verse hβG, which were conducted at pH 7.3 or pH 5.4 in triplicate, respectively. 40 μL purified βG was treated with 10 μL compound solution at 37 °C for 30 min, and sequentially incubated with 50 μL of pNPG (Sigma-Aldrich) at 37 °C for 30 min. Reactions were quenched with 5 μL of 2 N sodium hydroxide (Sigma-Aldrich). Each reaction consisted of 3.75 ng purified βG, 50 μM compound, and 5 mM pNPG in PBS containing 10% DMSO and 0.05% BSA (Sigma-Aldrich). βG-activities were measured by color development of pNP detected on a microplate reader at OD 405 nm.

[2] = 50 μM compound, pH 7.3, percent of activity vs untreated control
[3] = read-out: inhibition of eβG activity
[4] = pH 5.4, percent of activity vs untreated control

T1 sequence (P05804 whole entry): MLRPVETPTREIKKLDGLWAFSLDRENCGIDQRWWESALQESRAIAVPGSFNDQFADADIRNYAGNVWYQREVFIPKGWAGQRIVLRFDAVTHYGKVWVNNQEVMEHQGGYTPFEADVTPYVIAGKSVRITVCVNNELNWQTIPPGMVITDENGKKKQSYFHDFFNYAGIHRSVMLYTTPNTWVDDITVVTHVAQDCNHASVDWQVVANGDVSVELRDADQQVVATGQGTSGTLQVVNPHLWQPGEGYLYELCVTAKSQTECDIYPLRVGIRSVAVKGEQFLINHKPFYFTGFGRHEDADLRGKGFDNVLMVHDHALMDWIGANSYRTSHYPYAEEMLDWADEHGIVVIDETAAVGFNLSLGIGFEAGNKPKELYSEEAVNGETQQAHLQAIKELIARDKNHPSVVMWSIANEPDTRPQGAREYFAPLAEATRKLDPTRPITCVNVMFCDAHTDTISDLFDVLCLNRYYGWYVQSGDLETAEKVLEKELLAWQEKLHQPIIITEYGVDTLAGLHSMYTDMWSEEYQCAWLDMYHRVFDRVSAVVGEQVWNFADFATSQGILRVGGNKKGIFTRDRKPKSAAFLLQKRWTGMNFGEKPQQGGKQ

Row | Compound | eβG activity (%) with 50 μM compound [1, 2] [%] | hβG activity (%) with 50 μM compound (human βG (hβG); [4]) [%] | further results
1 | CC(C)(C)c1ccc(S(=O)(=O)/N=C2\C=CC(=O)c3ccccc32)cc1 [Compound 7145] | – | – | activity at 50 µM [1, 2]: 1%; inhibition at 10 µM [1, 3]: 55%; inhibition at 50 µM [1, 3]: > 95%; IC50 ([1]; recombinant eβG, pNPG substrate, pH 7.3): 31.6 µM; effect on hβG activity (human βG (hβG); 50 μM compound): does not hamper hβG activity; activity at 50 µM (human βG (hβG); 50 μM compound, pH 5.4, percent of activity vs untreated control): 120%
2 | COc1ccc(S(=O)(=O)NCCN2CCOCC2)c2ccccc12 [Compound 7670] | 43.16 | 93.31 | –
3 | CN(C)CCCNS(=O)(=O)c1ccc2c3c(cccc13)C(=O)N2 [Compound 8010] | 23.58 | 98.84 | –
4 | NC1=C2N=C(c3ccc([N+](=O)[O-])cc3)NN2NN1 [Compound 8013a] | 60.40 | 100.33 | –
5 | O=[N+]([O-])C12CNCC([N+](=O)[O-])(CNC1)C2 [Compound 8013b] | 32.91 | 93.72 | –
6 | O=C1c2ccccc2C(=O)c2c1cccc2S(=O)(=O)Nc1ccc(Cl)cc1 [Compound 8074] | 22.15 | 109.09 | –
7 | O=S(=O)(c1ccc(Br)cc1)N1CCNCC1 [Compound 8329] | 33.19 | 97.77 | –
8 | Cc1cccc(C(=O)NC2(C(F)(F)F)C(=O)Nc3c2c(=O)[nH]c(=O)n3-c2ccc(Cl)cc2)c1 (stereo not drawn) [Compound 8572] | 17.66 | 102.81 | –
9 | Cc1cc(NS(=O)(=O)c2ccc(NC(=O)C(C)Oc3ccc(Cl)cc3Cl)cc2)no1 (stereo not drawn) [Compound 8889] | 11.40 | 102.15 | –
10 | CS(=O)(=O)CCC(C(=O)O)N1C(=O)c2ccccc2C1=O (stereo not drawn) [Compound 9063] | 32.48 | 105.45 | –
11 | CS(=O)(=O)c1ccc2nc(NC(=O)c3ccccc3C(=O)O)sc2c1 [Compound 9107] | 29.70 | 105.37 | –
12 | COc1ccc(Cl)cc1NC(=O)CC(C(=O)O)N1CCNCC1 (stereo not drawn) [Compound 9183] | 39.67 | 107.36 | –
13 | CCN(CC)S(=O)(=O)c1cccc(N=Nc2c(O)[nH]c(=O)[nH]c2=O)c1 [Compound 9274] | 32.34 | 106.69 | –
14 | CCN1CCN(S(=O)(=O)c2cccc(Cl)c2)CC1 [Compound 9572] | 42.66 | 106.78 | –
15 | Cc1ccc2nc(CSc3nc(-c4ccncc4)ccc3C#N)[nH]c2c1 [Compound 9665] | 8.97 | 100.83 | –
16 | COc1ccc2ccccc2c1CNCC1CCNCC1 [Compound 9927] | 25.00 | 113.80 | –
